How the values were obtained:
[1] = Extraction of salts from a brine, four extraction steps; conditions: 0.4M CEM1 + 1.2M ASM9 in 12ClPh; for Salinity progression at RT, Ca / Salinity progression at RT, Cl / Salinity progression at RT, K / Salinity progression at RT, Mg / Salinity progression at RT, Na: Org./Water 3, brine 180 g/Liter
Description: (§1) The extracting composition is as follows: 0.4 Mol/L of CEM1 (cf example 1, of CAS #: 114155-16-7), completed with 1.2 Mol/L of ASM9 of formula: […]
(§2) The brine is a water having a high salinity, at 180 g/Liter (that is to say 5.6 Mol/L), composed of sodium, potassium, calcium, magnesium and chloride ions in the proportions of table II below. The saline water to be treated was contacted with a triple relative volume of this extracting composition in order to get close to the operating conditions.
(§3) It is shown in table II below the concentrations, in mMol/L of water, of each of the ions before and after each of the four extraction steps, carried out at room temperature (RT).

[2] = Selective extraction from a binary mixture NaCl/CaCl2; conditions: 0.1 mol/L CEM + 2.4 mol/L ASM9 in 1,2-dichlorobenzene; brine 0.05 mol/L NaCl and CaCl2 each; RT; molar %
Description: A brine containing an equimolar mixture of salts, 0.05 mol/L of NaCl and CaCl2 each, which was made as described above, was contacted with two extracting compositions, one of which according to the invention.
Each extracting composition comprises 0.1 mol/L of CEM
[drawing 53] and 2.4 mol/L of ASM9 in 1,2-dichlorobenzene.
A brine containing a mixture of NaCl and CaCl2 is made as described above to obtain the following initial saline concentrations in a mixture: 0.2 Mol/L of NaCl and 0.03 Mol/L of CaCl2. The extracting resin, is composed of 0.1 Mol/L of CEM2, 3.52 Mol/L of ASM2 and a complement of liquid ASM1, which is also used as a fluidizing agent.

[3] = Liquid-liquid extraction of mono-salt saline solution; conditions: 0.1M CEM + 3.52M ASM2 in CH2Cl2; initial salt 0.1 mol/L; Org./Water = 1; molar %
Description: The extracting composition is obtained by solubilizing an amount of CEM and ASM in the selected fluidizing agent, dichloromethane CH2Cl2, dichlorobenzene or dichlorotoluene or any other fluidizing agent able to well solubilize the mixture CEM/ASM in order to obtain the searched final concentrations after solubilizing CEMs and ASMs in a minimum of 3 milliliters of fluidizing agent. If the selected fluidizing agent is also an ASM compound, so the selected ASM volume is at least 3 milliliters. The given concentrations of ASM2 and ASM9 are related to the added fluidizing agent volume and the concentrations of CEM are related to the added fluidizing agent+ASM volume. The extracting organic composition is then lightly heated so as to promote the solubilization of the organic compounds by means of a heat gun (temperature around 50 to 60° C.) for a few seconds (10 to 30 seconds) until a clear solution is obtained. The composition is thus left for 24 hours at room temperature so as to make sure that the obtained formulation is stable.
These sealed formulations are then orbitally stirred at 500 revolutions/minute for two hours after adding an equivalent volume of water which was distilled twice so as to allow a water saturation of the whole formulation and a pH control at the inlet and at the outlet (pH close to 7, or at least maintained after contact with the saturation water).
3 mL of the prepared extracting organic composition are then taken from the lower phase of the decanted diphasic mixture and transferred to a vial containing 3 mL of the water containing the one or more considered chloride salts (NaCl or others), then the vial is sealed and orbitally stirred (at 500 revolutions per minute) for 2 hours at room temperature (RT), that is to say between 20 and 25° C.
A verification is made to make sure that droplets in the range of 1-2 mm are really present during these stirrings in order to be sure that an equilibrium in the distribution of the considered chloride salt (NaCl or other) is achieved between both liquid phases at the end of stirring. The aspect of the organic and aqueous phases is clear and colorless or slightly turbid.
Once the 2-hour stirring is carried out, the stirring is stopped and the whole is left for decantation for about 10 minutes, at least until both phases are completely separated, at the temperature of the assay. Then, the upper aqueous phase is taken then stirred and diluted in order to analyze its salinity by a ion chromatography (a Metrohm™ device including a cation analyzing column and an anion analyzing column suitable for the ions and for the concentration of the salts which are searched for). Likewise, the chloride salt (NaCl or other) initial aqueous solution is also analyzed by this ion chromatography to determine its cation and chloride molar relative concentration before the extraction. All the extractions and analyses were duplicated.
The considered extracting composition comprises 0.1 mol/L of CEM1 and 3.52 mol/L of ASM2 in dichloromethane CH2Cl2, which was obtained as described above. The initial concentration of the considered salt in water, whether it is LiCl, NaCl, KCl, MgCl2, CaCl2, SrCl2 or BaCl2, is 0.1 mol/L.
After carrying out these 7 specific extractions (duplicated) of salts, the amounts of extracted cations in relative molar percentage before and after extraction at room temperature and at water/extracting formulation iso-volume are indicated in table I: […]

[4] = Extraction of salts from a brine, four extraction steps, total salinity; conditions: 0.4M CEM1 + 1.2M ASM9 in 12ClPh; for Salinity progression at RT, Total: Org./Water 3, brine 180 g/Liter
Description: as §1, §2, §3

[5] = Complexing constant Log K in methanol at 25° C.; assay type: binding
Description: K is the complexing constant of a CEM and a […] cation in methanol, at 25° C., which is measured according to the standard method of isothermal calorimetric titration.

[6] = after Extract 4, expressed in g/Liter

- Log K(Ba^++, MeOH, 25° C.) [5]: 7.2
- Log K(Ca^++, MeOH, 25° C.) [5]: > 9.0
- Log K(Cs^+, MeOH, 25° C.) [5]: 2.5
- Log K(K^+, MeOH, 25° C.) [5]: 5.8
- Log K(Li^+, MeOH, 25° C.) [5]: 4.0
- Log K(Mg^++, MeOH, 25° C.) [5]: < 1.2
- Log K(Na^+, MeOH, 25° C.) [5]: 7.9
- Log K(Rb^+, MeOH, 25° C.) [5]: 3.8
- Log K(Sr^++, MeOH, 25° C.) [5]: > 9.0
Structure (SMILES): CCN(CC)C(=O)COc1c2cc(C(C)(C)C)cc1Cc1cc(C(C)(C)C)cc(c1OCC(=O)N(CC)CC)Cc1cc(C(C)(C)C)cc(c1OCC(=O)N(CC)CC)Cc1cc(C(C)(C)C)cc(c1OCC(=O)N(CC)CC)C2 [CEM1, 4-tert-butyl-Calix[4]arene tetrakis(N,N-diethylacetamide)]
- Salinity progression at RT, Ca ([1]; after Extract 1): 495 mmol/L
- Salinity progression at RT, Cl ([1]; after Extract 1): 2703 mmol/L
- Salinity progression at RT, K ([1]; after Extract 1): 22.5 mmol/L
- Salinity progression at RT, Mg ([1]; after Extract 1): 83.4 mmol/L
- Salinity progression at RT, Na ([1]; after Extract 1): 1162 mmol/L
- Salinity progression at RT, Ca ([1]; after Extract 2): 492 mmol/L
- Salinity progression at RT, Cl ([1]; after Extract 2): 2292 mmol/L
- Salinity progression at RT, K ([1]; after Extract 2): 23.4 mmol/L
- Salinity progression at RT, Mg ([1]; after Extract 2): 86.4 mmol/L
- Salinity progression at RT, Na ([1]; after Extract 2): 429 mmol/L
- Salinity progression at RT, Ca ([1]; after Extract 3): 360 mmol/L
- Salinity progression at RT, Cl ([1]; after Extract 3): 1083 mmol/L
- Salinity progression at RT, K ([1]; after Extract 3): 13.9 mmol/L
- Salinity progression at RT, Mg ([1]; after Extract 3): 87.6 mmol/L
- Salinity progression at RT, Na ([1]; after Extract 3): 8.54 mmol/L
- Salinity progression at RT, Ca ([1]; after Extract 4): 114 mmol/L
- Salinity progression at RT, Cl ([1]; after Extract 4): 469 mmol/L
- Salinity progression at RT, K ([1]; after Extract 4): 3.65 mmol/L
- Salinity progression at RT, Mg ([1]; after Extract 4): 94.2 mmol/L
- Salinity progression at RT, Na ([1]; after Extract 4): 3.70 mmol/L
- Equivalent4, Ca [1, 6]: 4.57 g/L
- Equivalent4, Cl [1, 6]: 16.62 g/L
- Equivalent4, K [1, 6]: 0.14 g/L
- Equivalent4, Mg [1, 6]: 2.29 g/L
- Equivalent4, Na [1, 6]: 0.09 g/L
- % E Ca^++ [2]: 10.0%
- % E Na^+ [2]: 88.0%
- Extraction rate at room temperature (RT), BaCl2 [3]: 46.1%
- Extraction rate at room temperature (RT), CaCl2 [3]: 59.4%
- Extraction rate at room temperature (RT), KCl [3]: 75.8%
- Extraction rate at room temperature (RT), LiCl [3]: 73.7%
- Extraction rate at room temperature (RT), MgCl2 [3]: 5.4%
- Extraction rate at room temperature (RT), NaCl [3]: 85.8%
- Extraction rate at room temperature (RT), SrCl2 [3]: 64.0%
- Salinity progression at RT, Total ([4]; after Extract 1): 4466 mmol/L
- Salinity progression at RT, Total ([4]; after Extract 2): 3322 mmol/L
- Salinity progression at RT, Total ([4]; after Extract 3): 1553 mmol/L
- Salinity progression at RT, Total ([4]; after Extract 4): 685 mmol/L
- Equivalent4, Total [4, 6]: 23.70 g/L

— patent publication US12623942B2, “Method for extracting salts and temperature- regenerated extracting composition” (ADIONICS, priority 2016, dated 2026)
